In patent US8158621B2, “Methods of treating or preventing autoimmune diseases with 2,4-pyrimidinediamine compounds” (Rigel Pharmaceuticals, Inc., priority 2002, dated 2012):

How the values were obtained:
[1] = Mouse Reverse Passive Arthus reaction (RPA reaction); type: in vivo, C57BL/6 mice; details: oral
Protocol: In this model system, test compounds are administered at several timepoints prior to administration of Abs and Ags. A solution of rabbit anti-OVA IgG (50 μg in 25 μl/mouse) is injected intradermally, and immediately following is an intravenous injection of chicken egg albumin (20 mg/kg of body weight) in a solution containing 1% Evans blue dye. The degree of edema and hemorrhage is measured in the dorsal skin of C57BL/6 mice using the Evan's Blue dye as an indicator of local tissue damage. Purified polyclonal rabbit IgG is used as a control.
Pretreatment time, in which the test compounds are administered prior to Ab/Ag challenge, depends on the pharmacokinetic (PK) properties of each individual compound. Four hours after induction of Arthus reaction, mice are euthanized, and tissues are harvested for assessment of edema.

[2] = tested on: cultured human mast cells (CHMC); test: CHMC low cell density IgE activation: tryptase assay; type: cell-based; details: read-out: CHMC anti-IgE Tryptase
Summary of the method: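 CHMC resuspended in pre-warmed MT buffer at 1000-1500 cells/well (donor-dependent) and preincubated 1 hr at 37° C, then stimulated with anti-IgE for 30 min at 37° C; unstimulated wells got MT alone. Supernatant tryptase activity read with tryptase substrate after 30 min at room temperature.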

[3] = tested on: cultured human mast cells (CHMC); test: CHMC low cell density ionomycin activation: tryptase assay; type: cell-based; details: read-out: CHMC Ionomycin Tryptase
[4] = tested on: bone marrow derived mast cells (BMMC); test: BMMC high cell density IgE activation: hexosaminidase; type: cell-based, mouse; details: high cell density; read-out: BMMC anti-IgE Hexos.
Protocol: After sensitizing, cells are counted, pelleted (1000 rpm, 5-10 minutes), and resuspended at 1-3×10^6 cells/ml in MT buffer. Add 100 ul of cell suspension to each well and 100 ul of compound dilutions. The final vehicle concentration is 0.5% DMSO. Incubate at 37° C. (5% CO2) for 1 hour. After 1 hour of compound treatment, stimulate cells with 6× stimulus (60 ng/ml DNP-BSA). Mix wells with the cells and allow plates to incubate at 37° C. (5% CO2) for one hour. After 1 hour incubation, pellet cells (10 minutes, 1000 RPM) and collect 200 ul per well of the supernatant, being careful not to disturb pellet, and transfer to a clean tube or 96-well plate. Place the supernatant plate on ice. During the 4-5 hour step (see next) perform the hexosiminidase assay. Resuspend cell pellet in 240 ul WEI-conditioned media containing 0.5% DMSO and corresponding concentration of compound. Incubate BMMC cells for 4-5 hours at 37° C. (5% CO2). After incubation, pellet cells (1000 RPM, 10 minutes) and collect 225 ul per well and place in −80° C. until ready to perform ELISAS. ELISAS are performed on appropriately diluted samples (determined empirically for each donor cell population so that the sample measurement falls within the standard curve) following the supplier's instructions.
Add 50 uL of BMMC cell supernatant (see above) to the hexoseaminidase substrate, place at 37° C. for 30 minutes and read the plate at 5, 10, 15, and 30 minutes on a spectrophotometer.

Syk kinase = biological target: T1, Syk kinase (Homo sapiens, UniProt P43405); test: Syk kinase biochemical fluorescence polarization assay; details: isolated Syk kinase, fluorescence polarization, 4 uM ATP
T1 construct: purchased Upstate, Lake Placid NY

[5] = tested on: Human Jurkat T-cells (clone N); test: Jurkat T-cell activation (anti-TCR, CD69 upregulation); type: cell-based
Summary of the method: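 Jurkat cells in RPMI + 5% FBS preincubated with compound 1 h at 37 °C, then stimulated with anti-TCR C305 at 500 ng/ml for 20 h. CD69 surface expression stained with anti-CD69-APC and read by flow cytometry; IC50 versus solvent-only control.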

[6] = 50 mg/kg, pretreatment time 1.5 hrs
[7] = 100 mg/kg, pretreatment time 1 hrs + 4 hours
[8] = 100 mg/kg, pretreatment time 1.5 hrs
[9] = 100 mg/kg, pretreatment time 1.5 hrs + 4 hours
[10] = 50 mg/kg, pretreatment time 1.5 hrs + 4 hours

IC50 ([2]; low cell density)	IC50 ([3]; low cell density)	IC50 [4]	IC50 (Syk kinase)	Structure (SMILES)	other results
54 nM	5240 nM			COc1cc(Nc2ncc(F)c(Nc3ccc4c(c3)NC(=O)C(C)(C)O4)n2)cc(OC)c1.Cc1ccc(S(=O)(=O)O)cc1 [Compound R927070]	% inhibition to vehicle control Edema Size ± SEM ([1]; 50 mg/kg, pretreatment time 1 hrs): 56 ± 15%; Plasma Concentration ± SEM (ng/ml) Exposure = Pretreatment Time + 4 hours ([1]; 50 mg/kg, pretreatment time 1 hrs + 4 hours): 1755 ± 310 ng/mL; % inhibition to vehicle control Edema Size ± SEM [1, 6]: 31.1 ± 17.29%; % inhibition to vehicle control Edema Size ± SEM ([1]; 100 mg/kg, pretreatment time 1 hrs): 61 ± 14%; Plasma Concentration ± SEM (ng/ml) Exposure = Pretreatment Time + 4 hours [1, 7]: 2851 ± 712 ng/mL; % inhibition to vehicle control Edema Size ± SEM [1, 8]: 55.5 ± 7.7%; Plasma Concentration ± SEM (ng/ml) Exposure = Pretreatment Time + 4 hours [1, 9]: 4095 ± 1187 ng/mL
	> 10000 nM	4000 nM		CNC(=O)COc1cccc(Nc2ncc(F)c(Nc3ccc(OC(F)(F)F)c(C(=O)N4CCOCC4)c3)n2)c1 [Compound R950411]	
	> 10000 nM	1270 nM	1850 nM	CC(=O)N(C)c1ccc(Nc2ncc(F)c(NC3CC3)n2)cc1 [Compound R945369]	
	> 10000 nM	1290 nM		CNC(=O)COc1cccc(Nc2ncc(F)c(Nc3ccc(N4CCOCC4)cc3)n2)c1 [Compound R945367]	
	> 10000 nM	3240 nM		CNC(=O)COc1cccc(Nc2ncc(F)c(Nc3ccc(OC(F)(F)F)c(C(=O)N4CCCCC4)c3)n2)c1 [Compound R950409]	
> 10000 nM	> 10000 nM			Cc1ccc(S(=O)(=O)O)cc1.Cc1ccc(S(=O)(=O)O)cc1.OCCCn1ncc2cc(Nc3ncc(F)c(Nc4ccc(Cl)c(Cl)c4)n3)ccc21 [Compound R935451]	% inhibition to vehicle control Edema Size ± SEM ([1]; 10 mg/kg, pretreatment time 1.5 hrs): −14.4 ± 13.3%; Plasma Concentration ± SEM (ng/ml) Exposure = Pretreatment Time + 4 hours ([1]; 10 mg/kg, pretreatment time 1.5 hrs + 4 hours): 14.4 ± 1.8 ng/mL; % inhibition to vehicle control Edema Size ± SEM ([1]; 30 mg/kg, pretreatment time 1.5 hrs): −30.6 ± 15.4%; Plasma Concentration ± SEM (ng/ml) Exposure = Pretreatment Time + 4 hours ([1]; 30 mg/kg, pretreatment time 1.5 hrs + 4 hours): 78.0 ± 32.0 ng/mL; % inhibition to vehicle control Edema Size ± SEM [1, 6]: 74.9 ± 7.5%; Plasma Concentration ± SEM (ng/ml) Exposure = Pretreatment Time + 4 hours [1, 10]: 385.0 ± 149.4 ng/mL; % inhibition to vehicle control Edema Size ± SEM [1, 8]: 77.1 ± 8.0%; Plasma Concentration ± SEM (ng/ml) Exposure = Pretreatment Time + 4 hours [1, 9]: 1459.0 ± 444.4 ng/mL
	> 10000 nM	> 10000 nM		CNC(=O)COc1cccc(Nc2ncc(F)c(Nc3ccc(OC(F)(F)F)c(C(=O)NCCN)c3)n2)c1 [Compound R950406]	
	> 10000 nM	1710 nM		CNC(=O)COc1cccc(Nc2ncc(F)c(Nc3ccc(N4CCN(C(=O)OC)CC4)cc3)n2)c1 [Compound R945368]	
	> 10000 nM	> 10000 nM		CCOC(=O)CCn1ncc2cc(Nc3ncc(F)c(Nc4ccc(F)c(F)c4)n3)ccc21 [Compound R935384]	
30 nM	4300 nM		23 nM	Cc1cc(Nc2ncc(F)c(Nc3ccc4c(c3)NC(=O)C(C)(C)O4)n2)cc(Cl)c1O [Compound R940358]	IC50 [5]: 159 nM
	> 10000 nM	2400 nM		Oc1c(Cl)cc(Nc2ncc(F)c(Nc3ccc(OC(F)(F)F)c(Cl)c3)n2)cc1Cl [Compound R927046]	
	> 10000 nM	7740 nM		CCOC(=O)CCn1ncc2cc(Nc3ncc(F)c(Nc4ccc(OC)nc4OC)n3)ccc21 [Compound R935381]	
> 10000 nM	> 10000 nM	> 10000 nM		Fc1cnc(Nc2ccc(OCc3ccccc3)c(Cl)c2)nc1Nc1ccc(OCc2ccccc2)c(Cl)c1 [Compound R926965]	
436 nM	> 10000 nM			COc1ccc(Nc2nc(Nc3ccc4cc[nH]c4c3)ncc2F)cc1Cl.Cc1ccc(S(=O)(=O)O)cc1 [Compound R927087]	% inhibition to vehicle control Edema Size ± SEM [1, 6]: −10.4 ± 14.4%; Plasma Concentration ± SEM (ng/ml) Exposure = Pretreatment Time + 4 hours [1, 10]: 26.9 ± 8.0 ng/mL; % inhibition to vehicle control Edema Size ± SEM [1, 8]: 28.7 ± 16.6%; Plasma Concentration ± SEM (ng/ml) Exposure = Pretreatment Time + 4 hours [1, 9]: 28.7 ± 10.8 ng/mL
	> 10000 nM	4280 nM		COc1ccc(Nc2nc(Nc3cc(Cl)c(O)c(Cl)c3)ncc2F)cc1Cl [Compound R927044]	
	> 10000 nM	> 10000 nM		CNC(=O)COc1cccc(Nc2ncc(F)c(Nc3ccc(OC(F)(F)F)c(C(=O)NC)c3)n2)c1 [Compound R950407]	

IC50 ([2]; low cell density)	IC50 ([3]; low cell density)	IC50 [4]	IC50 (Syk kinase)	Structure (SMILES)	other results
522 nM	> 10000 nM		1050 nM	CC(=O)N1CCN(c2ccc(Nc3ncc(F)c(NC4CC4)n3)cc2)CC1 [Compound R945370]	
94 nM	> 10000 nM		10 nM	CC(=O)N1CCN(c2ccc(Nc3ncc(F)c(Nc4ccc5c(n4)NC(=O)CO5)n3)cc2)CC1 [Compound R945391]	
109 nM	23500 nM		13 nM	CN(C)Cc1cc2cc(Nc3ncc(F)c(Nc4ccc5c(c4)NC(=O)C(F)(F)O5)n3)ccc2o1 [Compound R926979]	
36 nM	> 10000 nM			CC1(C)Oc2ccc(Nc3nc(Nc4ccc5cn[nH]c5c4)ncc3F)cc2NC1=O.O=S(=O)(O)c1ccccc1 [Compound R935429]	% inhibition to vehicle control Edema Size ± SEM [1, 6]: −5.1 ± 14.9%; Plasma Concentration ± SEM (ng/ml) Exposure = Pretreatment Time + 4 hours [1, 10]: 164 ± 89 ng/mL; % inhibition to vehicle control Edema Size ± SEM ([1]; 100 mg/kg, pretreatment time 0 hrs): −2.8 ± 14.8%; Plasma Concentration ± SEM (ng/ml) Exposure = Pretreatment Time + 4 hours [1, 7]: 401 ± 96 ng/mL; % inhibition to vehicle control Edema Size ± SEM [1, 8]: 67.1 ± 13.8%; Plasma Concentration ± SEM (ng/ml) Exposure = Pretreatment Time + 4 hours [1, 9]: 206 ± 115 ng/mL; % inhibition to vehicle control Edema Size ± SEM ([1]; 100 mg/kg, pretreatment time 2 hrs): 55.5 ± 7.9%; % inhibition to vehicle control Edema Size ± SEM ([1]; 100 mg/kg, pretreatment time 4 hrs): 35.0 ± 11.4%
	> 10000 nM	4820 nM		CNCCNC(=O)c1cc(Nc2nc(Nc3cccc(OCC(=O)NC)c3)ncc2F)ccc1OC(F)(F)F [Compound R950408]	
	> 10000 nM	217 nM		CNC(=O)CCn1ncc2cc(Nc3ncc(F)c(Nc4ccc(F)c(F)c4)n3)ccc21 [Compound R935385]	
110 nM	> 10000 nM		4 nM	CNC(=O)C1Cc2cc(Nc3ncc(F)c(Nc4ccc5c(c4)NC(=O)C(F)(F)O5)n3)ccc2O1 (racemic) [Compound R927049]	
60 nM	> 10000 nM		57 nM	COc1cc(Nc2ncc(F)c(Nc3ccc4c(c3)NC(=O)C(F)(F)O4)n2)cc(OC)c1 [Compound R926970]	
36 nM	8500 nM		50 nM	CC1(C)Oc2ccc(Nc3nc(Nc4ccc5c(cnn5CCCO)c4)ncc3F)cc2NC1=O [Compound R935432]	
	> 10000 nM	923 nM		CNC(=O)COc1cccc(Nc2ncc(F)c(NC3CC3)n2)c1 [Compound R945372]	
316 nM	19000 nM		449 nM	Nc1cccc(Nc2nc(Nc3cccc(O)c3)ncc2F)n1 [Compound R927083]	
713 nM	> 10000 nM		1300 nM	COC(=O)N1CCN(c2ccc(Nc3ncc(F)c(NC4CC4)n3)cc2)CC1 [Compound R945371]	
	> 10000 nM	200 nM		CNC(=O)CCn1ncc2cc(Nc3ncc(F)c(Nc4ccc(Cl)cc4)n3)ccc21 [Compound R935382]	
123 nM	21000 nM		127 nM	COc1ccc(Nc2ncc(F)c(Nc3ccc4c(c3)C(N)CCO4)n2)cc1Cl (racemic) [Compound R950428]	
	> 10000 nM	> 10000 nM		CNC(=O)COc1cccc(Nc2ncc(F)c(Nc3ccc(OC(F)(F)F)c(C(=O)NC[C@@H](O)CO)c3)n2)c1 [Compound R950410]	
			380 nM	CNC(=O)C1Cc2cc(Nc3ncc(F)c(Nc4ccc(OC(C)C)cc4)n3)ccc2O1 (stereo not shown) [Compound R926956]	IC50 [5]: 749 nM; IC50 ([2]; Low Density): 211 nM; IC50 ([3]; Low Density): > 10000 nM
